Experimental data taken from publication PMC6874179, “Development of Macrocycle Kinase Inhibitors for ALK2 Using Fibrodysplasia Ossificans Progressiva‐Derived Endothelial Cells” (JBMR Plus, 2019).

Columns and labels:
ALK1 = target: T1, ALK1 (Homo sapiens, UniProt P37023); test: DiscoverX Kd determination; type: binding
T1 construct: T7 phage fusion (or DNA tag for qPCR if made in HEK-293); purchased DiscoverX; host or cells: E. coli (T7 phage) or HEK-293
Experimental: (§1) DiscoverX Kd determination: For most assays, kinase-tagged T7 phage strains were prepared in an E. coli host derived from the BL21 strain. E. coli were grown to log-phase and infected with T7 phage and incubated with shaking at 32°C until lysis. The lysates were centrifuged and filtered to remove cell debris. The remaining kinases were produced in HEK-293 cells and subsequently tagged with DNA for qPCR detection. […] The liganded beads were blocked with excess biotin and washed with blocking buffer (SeaBlock (Pierce), 1% BSA, 0.05% Tween 20, 1 mM DTT) to remove unbound ligand and to reduce non-specific binding. […] Kds were determined using an 11-point 3-fold compound dilution series with three DMSO control points. […] The compounds were then diluted directly into the assays such that the final concentration of DMSO was 0.9%. All reactions performed in polypropylene 384-well plate. Each was a final volume of 0.02 ml. […] The kinase concentration in the eluates was measured by qPCR. An 11-point 3-fold serial dilution of each test compound was prepared in 100% DMSO at 100x final test concentration and subsequently diluted to 1x in the assay (final DMSO concentration = 1%). Most Kds were determined using a compound top concentration = 30.000 nM. […] Binding constants (Kds) were calculated with a standard dose-response curve using the Hill equation: Response = Background + Signal – Background 1 + (KdHill Slope / DoseHill Slope). The Hill Slope was set to -1. Curves were fitted using a non-linear least square fit with the Levenberg-Marquardt algorithm.

ALK2 = target: T2, ALK2 (Homo sapiens, UniProt Q04771); test: DiscoverX Kd determination; type: binding
T2 construct: T7 phage fusion (or DNA tag for qPCR if made in HEK-293); purchased DiscoverX; host or cells: E. coli (T7 phage) or HEK-293
Experimental: as §1

ALK3 = target: T3, ALK3 (Homo sapiens, UniProt P36894); test: DiscoverX Kd determination; type: binding
T3 construct: T7 phage fusion (or DNA tag for qPCR if made in HEK-293); purchased DiscoverX; host or cells: E. coli (T7 phage) or HEK-293
Experimental: as §1

ALK4 = target: T4, ALK4 (Homo sapiens, UniProt P36896); test: DiscoverX Kd determination; type: binding
T4 construct: T7 phage fusion (or DNA tag for qPCR if made in HEK-293); purchased DiscoverX; host or cells: E. coli (T7 phage) or HEK-293
Experimental: as §1

ALK5 = target: T5, ALK5 (Homo sapiens, UniProt P36897); test: DiscoverX Kd determination; type: binding
T5 construct: T7 phage fusion (or DNA tag for qPCR if made in HEK-293); purchased DiscoverX; host or cells: E. coli (T7 phage) or HEK-293
Experimental: as §1

RET_Y791F = target: T6, RET_Y791F (Homo sapiens, UniProt P07949, Y791F); test: Proqinase Kinase profiling; type: biochemical; conditions: read-out: % inhibition at 100nM
T6 construct: purchased DiscoverX

MAP4K5 = target: T7, MAP4K5 (Homo sapiens, UniProt Q9Y4K4); test: Proqinase Kinase profiling; type: biochemical; conditions: read-out: % inhibition at 100nM
T7 construct: purchased DiscoverX

IRAK1 = target: T8, IRAK1 (Homo sapiens, UniProt P51617); test: Proqinase Kinase profiling; type: biochemical; conditions: read-out: % inhibition at 100nM
T8 construct: purchased DiscoverX

MKNK2 = target: T9, MKNK2 (Homo sapiens, UniProt Q9HBH9); test: Proqinase Kinase profiling; type: biochemical; conditions: read-out: % inhibition at 100nM
T9 construct: purchased DiscoverX
T9 sequence (Q9HBH9 whole entry): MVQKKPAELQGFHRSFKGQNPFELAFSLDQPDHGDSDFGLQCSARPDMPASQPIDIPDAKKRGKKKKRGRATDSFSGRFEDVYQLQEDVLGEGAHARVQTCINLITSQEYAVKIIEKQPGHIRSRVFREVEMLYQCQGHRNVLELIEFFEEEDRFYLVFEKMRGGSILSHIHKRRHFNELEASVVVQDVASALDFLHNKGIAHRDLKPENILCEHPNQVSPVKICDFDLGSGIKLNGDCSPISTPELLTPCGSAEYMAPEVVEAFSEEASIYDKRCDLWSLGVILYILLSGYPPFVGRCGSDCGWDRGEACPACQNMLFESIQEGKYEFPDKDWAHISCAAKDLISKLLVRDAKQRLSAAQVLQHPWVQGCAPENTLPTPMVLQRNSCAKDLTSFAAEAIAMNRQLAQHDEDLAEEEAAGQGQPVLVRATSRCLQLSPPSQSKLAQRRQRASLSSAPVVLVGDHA

RPS6KA5 = target: T10, RPS6KA5 (Homo sapiens, UniProt O75582); test: Proqinase Kinase profiling; type: biochemical; conditions: read-out: % inhibition at 100nM
T10 construct: purchased DiscoverX

DCLK2 = target: T11, DCLK2 (Homo sapiens, UniProt Q8N568); test: Proqinase Kinase profiling; type: biochemical; conditions: read-out: % inhibition at 100nM
T11 construct: purchased DiscoverX

DNAPK = target: T12, DNAPK (Homo sapiens, UniProt P78527); test: Proqinase Kinase profiling; type: biochemical; conditions: read-out: % inhibition at 100nM
T12 construct: purchased DiscoverX

PRKCZ = target: T13, PRKCZ (Homo sapiens, UniProt Q05513); test: Proqinase Kinase profiling; type: biochemical; conditions: read-out: % inhibition at 100nM
T13 construct: purchased DiscoverX

PRKD2 = target: T14, PRKD2 (Homo sapiens, UniProt Q9BZL6); test: Proqinase Kinase profiling; type: biochemical; conditions: read-out: % inhibition at 100nM
T14 construct: purchased DiscoverX

MAPK13 = target: T15, MAPK13 (Homo sapiens, UniProt O15264); test: Proqinase Kinase profiling; type: biochemical; conditions: read-out: % inhibition at 100nM
T15 construct: purchased DiscoverX

CSNK2A1 = target: T16, CSNK2A1 (Homo sapiens, UniProt P68400); test: Proqinase Kinase profiling; type: biochemical; conditions: read-out: % inhibition at 100nM
T16 construct: purchased DiscoverX

MARK4 = target: T17, MARK4 (Homo sapiens, UniProt Q96L34); test: Proqinase Kinase profiling; type: biochemical; conditions: read-out: % inhibition at 100nM
T17 construct: purchased DiscoverX
T17 sequence (Q96L34 whole entry): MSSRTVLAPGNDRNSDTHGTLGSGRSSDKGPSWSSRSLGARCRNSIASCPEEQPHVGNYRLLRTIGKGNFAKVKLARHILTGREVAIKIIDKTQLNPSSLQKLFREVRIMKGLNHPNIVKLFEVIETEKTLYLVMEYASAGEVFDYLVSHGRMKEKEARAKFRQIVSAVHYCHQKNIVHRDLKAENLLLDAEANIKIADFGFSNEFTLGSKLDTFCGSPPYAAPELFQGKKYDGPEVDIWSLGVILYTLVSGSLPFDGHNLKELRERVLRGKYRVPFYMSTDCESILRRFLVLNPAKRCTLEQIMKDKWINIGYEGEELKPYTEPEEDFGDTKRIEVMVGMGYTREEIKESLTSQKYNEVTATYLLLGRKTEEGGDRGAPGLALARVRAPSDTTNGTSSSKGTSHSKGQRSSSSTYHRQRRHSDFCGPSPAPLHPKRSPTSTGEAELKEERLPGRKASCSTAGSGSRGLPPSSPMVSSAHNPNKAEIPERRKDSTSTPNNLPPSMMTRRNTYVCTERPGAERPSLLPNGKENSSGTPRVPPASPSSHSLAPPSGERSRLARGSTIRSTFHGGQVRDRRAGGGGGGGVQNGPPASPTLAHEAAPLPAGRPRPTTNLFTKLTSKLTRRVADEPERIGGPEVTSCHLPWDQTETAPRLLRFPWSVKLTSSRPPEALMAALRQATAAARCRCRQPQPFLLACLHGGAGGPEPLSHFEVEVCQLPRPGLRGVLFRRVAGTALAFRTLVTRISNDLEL

INSR = target: T18, INSR (Homo sapiens, UniProt P06213); test: Proqinase Kinase profiling; type: biochemical; conditions: read-out: % inhibition at 100nM
T18 construct: purchased DiscoverX

FRK = target: T19, FRK (Homo sapiens, UniProt P42685); test: Proqinase Kinase profiling; type: biochemical; conditions: read-out: % inhibition at 100nM
T19 construct: purchased DiscoverX
T19 sequence (P42685 whole entry): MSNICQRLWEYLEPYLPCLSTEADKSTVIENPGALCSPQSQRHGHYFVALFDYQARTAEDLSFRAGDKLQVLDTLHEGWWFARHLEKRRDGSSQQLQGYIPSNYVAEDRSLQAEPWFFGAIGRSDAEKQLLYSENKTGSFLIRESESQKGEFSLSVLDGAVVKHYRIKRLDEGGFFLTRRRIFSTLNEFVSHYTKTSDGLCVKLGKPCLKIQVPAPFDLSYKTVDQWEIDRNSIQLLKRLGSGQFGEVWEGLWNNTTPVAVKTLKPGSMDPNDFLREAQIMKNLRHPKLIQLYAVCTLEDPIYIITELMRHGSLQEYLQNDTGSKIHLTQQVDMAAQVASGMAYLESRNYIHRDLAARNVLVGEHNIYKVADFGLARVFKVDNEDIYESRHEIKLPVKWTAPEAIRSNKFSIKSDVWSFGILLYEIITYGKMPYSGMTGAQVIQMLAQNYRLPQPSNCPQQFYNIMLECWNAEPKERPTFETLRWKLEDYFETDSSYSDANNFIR

MAPK11 = target: T20, MAPK11 (Homo sapiens, UniProt Q15759); test: Proqinase Kinase profiling; type: biochemical; conditions: read-out: % inhibition at 100nM
T20 construct: purchased DiscoverX

DYRK3 = target: T21, DYRK3 (Homo sapiens, UniProt O43781); test: Proqinase Kinase profiling; type: biochemical; conditions: read-out: % inhibition at 100nM
T21 construct: purchased DiscoverX
T21 sequence (O43781 whole entry): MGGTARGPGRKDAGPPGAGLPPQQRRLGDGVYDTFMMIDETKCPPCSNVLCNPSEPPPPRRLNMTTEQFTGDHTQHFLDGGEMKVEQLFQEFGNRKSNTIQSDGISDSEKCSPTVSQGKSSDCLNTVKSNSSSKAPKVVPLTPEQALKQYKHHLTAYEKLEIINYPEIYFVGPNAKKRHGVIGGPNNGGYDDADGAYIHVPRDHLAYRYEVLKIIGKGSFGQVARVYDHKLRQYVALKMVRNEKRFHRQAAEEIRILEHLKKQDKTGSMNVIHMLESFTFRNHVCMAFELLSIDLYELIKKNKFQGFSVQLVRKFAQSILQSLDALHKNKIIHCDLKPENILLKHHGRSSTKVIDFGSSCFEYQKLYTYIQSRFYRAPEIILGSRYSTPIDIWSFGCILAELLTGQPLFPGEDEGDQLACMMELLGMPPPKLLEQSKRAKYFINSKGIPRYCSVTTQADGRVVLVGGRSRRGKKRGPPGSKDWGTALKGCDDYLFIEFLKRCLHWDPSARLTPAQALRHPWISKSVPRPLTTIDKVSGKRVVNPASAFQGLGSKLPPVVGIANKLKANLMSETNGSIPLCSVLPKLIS

DMPK = target: T22, DMPK (Homo sapiens, UniProt Q09013); test: Proqinase Kinase profiling; type: biochemical; conditions: read-out: % inhibition at 100nM
T22 construct: purchased DiscoverX

CDK7_cyclinH_MAT1 = target: T23, CDK7_cyclinH_MAT1 (Homo sapiens, UniProt P50613); test: Proqinase Kinase profiling; type: biochemical; conditions: read-out: % inhibition at 100nM
T23 construct: purchased DiscoverX

DYRK1B = target: T24, DYRK1B (Homo sapiens, UniProt Q9Y463); test: Proqinase Kinase profiling; type: biochemical; conditions: read-out: % inhibition at 100nM
T24 construct: purchased DiscoverX

EPHA2 = target: T25, EPHA2 (Homo sapiens, UniProt P29317); test: Proqinase Kinase profiling; type: biochemical; conditions: read-out: % inhibition at 100nM
T25 construct: purchased DiscoverX
T25 sequence (P29317 24-976): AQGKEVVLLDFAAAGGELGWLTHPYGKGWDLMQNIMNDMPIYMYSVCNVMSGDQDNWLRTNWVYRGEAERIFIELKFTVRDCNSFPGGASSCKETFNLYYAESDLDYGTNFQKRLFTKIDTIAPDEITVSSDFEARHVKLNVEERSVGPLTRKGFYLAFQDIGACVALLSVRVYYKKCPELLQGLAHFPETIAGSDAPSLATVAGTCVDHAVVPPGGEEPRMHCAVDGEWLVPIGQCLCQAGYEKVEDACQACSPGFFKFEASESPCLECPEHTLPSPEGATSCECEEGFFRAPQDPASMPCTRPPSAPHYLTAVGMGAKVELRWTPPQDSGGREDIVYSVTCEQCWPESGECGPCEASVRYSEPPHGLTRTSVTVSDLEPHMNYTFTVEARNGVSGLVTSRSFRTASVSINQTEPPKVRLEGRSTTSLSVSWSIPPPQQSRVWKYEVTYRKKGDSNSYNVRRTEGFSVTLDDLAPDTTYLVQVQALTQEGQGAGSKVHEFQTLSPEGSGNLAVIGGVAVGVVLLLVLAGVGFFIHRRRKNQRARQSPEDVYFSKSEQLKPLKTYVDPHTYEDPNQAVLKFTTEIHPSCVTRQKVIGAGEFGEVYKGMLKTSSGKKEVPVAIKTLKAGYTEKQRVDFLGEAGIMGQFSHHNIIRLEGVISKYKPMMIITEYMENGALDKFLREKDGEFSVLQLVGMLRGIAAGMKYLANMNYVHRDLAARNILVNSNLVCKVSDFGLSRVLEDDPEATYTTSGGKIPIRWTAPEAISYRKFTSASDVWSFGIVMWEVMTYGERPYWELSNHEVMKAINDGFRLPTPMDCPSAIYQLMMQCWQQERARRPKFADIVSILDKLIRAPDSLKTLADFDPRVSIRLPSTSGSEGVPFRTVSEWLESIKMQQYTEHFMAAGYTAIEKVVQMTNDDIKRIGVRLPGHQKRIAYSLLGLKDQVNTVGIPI

TEK = target: T26, TEK (Homo sapiens, UniProt Q02763); test: Proqinase Kinase profiling; type: biochemical; conditions: read-out: % inhibition at 100nM
T26 construct: purchased DiscoverX

ERBB4 = target: T27, ERBB4 (Homo sapiens, UniProt Q15303); test: Proqinase Kinase profiling; type: biochemical; conditions: read-out: % inhibition at 100nM
T27 construct: purchased DiscoverX

MINK1 = target: T28, MINK1 (Homo sapiens, UniProt Q8N4C8); test: Proqinase Kinase profiling; type: biochemical; conditions: read-out: % inhibition at 100nM
T28 construct: purchased DiscoverX
T28 sequence (Q8N4C8 whole entry): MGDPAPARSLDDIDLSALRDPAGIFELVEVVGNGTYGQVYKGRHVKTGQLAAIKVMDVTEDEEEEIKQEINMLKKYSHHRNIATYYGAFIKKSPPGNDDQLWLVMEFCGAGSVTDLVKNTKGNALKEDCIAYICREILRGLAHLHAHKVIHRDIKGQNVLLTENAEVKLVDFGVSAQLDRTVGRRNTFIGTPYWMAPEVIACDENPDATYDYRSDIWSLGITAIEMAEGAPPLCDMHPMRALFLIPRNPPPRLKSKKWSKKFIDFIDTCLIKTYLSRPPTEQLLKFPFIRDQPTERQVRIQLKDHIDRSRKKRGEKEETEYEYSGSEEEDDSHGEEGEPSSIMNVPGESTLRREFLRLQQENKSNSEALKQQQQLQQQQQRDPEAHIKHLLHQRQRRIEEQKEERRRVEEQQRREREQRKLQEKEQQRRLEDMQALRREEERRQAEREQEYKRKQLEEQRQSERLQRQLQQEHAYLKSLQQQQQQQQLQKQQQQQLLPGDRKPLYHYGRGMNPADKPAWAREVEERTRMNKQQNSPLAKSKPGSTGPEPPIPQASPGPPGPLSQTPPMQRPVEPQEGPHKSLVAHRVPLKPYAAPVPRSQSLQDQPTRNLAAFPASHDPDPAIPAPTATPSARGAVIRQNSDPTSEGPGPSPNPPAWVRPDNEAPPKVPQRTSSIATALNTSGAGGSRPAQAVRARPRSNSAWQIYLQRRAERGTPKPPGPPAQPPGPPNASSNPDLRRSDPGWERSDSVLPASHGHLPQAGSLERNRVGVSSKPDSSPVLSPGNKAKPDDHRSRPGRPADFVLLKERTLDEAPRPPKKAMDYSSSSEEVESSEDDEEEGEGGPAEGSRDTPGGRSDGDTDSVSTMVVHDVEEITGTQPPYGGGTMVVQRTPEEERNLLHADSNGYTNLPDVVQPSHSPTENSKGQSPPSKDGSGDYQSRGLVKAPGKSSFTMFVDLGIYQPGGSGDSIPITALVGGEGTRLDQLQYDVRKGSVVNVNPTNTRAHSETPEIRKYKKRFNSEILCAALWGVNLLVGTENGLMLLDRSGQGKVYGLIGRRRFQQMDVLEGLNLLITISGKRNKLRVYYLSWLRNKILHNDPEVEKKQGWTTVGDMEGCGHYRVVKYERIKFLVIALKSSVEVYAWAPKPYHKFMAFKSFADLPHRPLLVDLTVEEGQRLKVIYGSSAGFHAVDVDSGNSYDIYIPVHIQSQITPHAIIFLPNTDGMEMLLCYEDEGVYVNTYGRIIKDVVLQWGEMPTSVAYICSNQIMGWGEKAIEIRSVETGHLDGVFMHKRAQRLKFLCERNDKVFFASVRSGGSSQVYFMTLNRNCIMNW

PRKAA1 = target: T29, PRKAA1 (Homo sapiens, UniProt Q13131); test: Proqinase Kinase profiling; type: biochemical; conditions: read-out: % inhibition at 100nM
T29 construct: purchased DiscoverX

ABL1_H396P = target: T30, ABL1_H396P (Homo sapiens, UniProt P00519, H396P); test: Proqinase Kinase profiling; type: biochemical; conditions: read-out: % inhibition at 100nM
T30 construct: purchased DiscoverX

ABL1_T351I = target: T31, ABL1_T351I (Homo sapiens, UniProt P00519, T315I); test: Proqinase Kinase profiling; type: biochemical; conditions: read-out: % inhibition at 100nM
T31 construct: purchased DiscoverX

YES1 = target: T32, YES1 (Homo sapiens, UniProt P07947); test: Proqinase Kinase profiling; type: biochemical; conditions: read-out: % inhibition at 100nM
T32 construct: purchased DiscoverX

MAP3K14 = target: T33, MAP3K14 (Homo sapiens, UniProt Q99558); test: Proqinase Kinase profiling; type: biochemical; conditions: read-out: % inhibition at 100nM
T33 construct: purchased DiscoverX

FGFR1_V561M = target: T34, FGFR1_V561M (Homo sapiens, UniProt P11362, V561M); test: Proqinase Kinase profiling; type: biochemical; conditions: read-out: % inhibition at 100nM
T34 construct: purchased DiscoverX

T1 sequence (P37023 22-503): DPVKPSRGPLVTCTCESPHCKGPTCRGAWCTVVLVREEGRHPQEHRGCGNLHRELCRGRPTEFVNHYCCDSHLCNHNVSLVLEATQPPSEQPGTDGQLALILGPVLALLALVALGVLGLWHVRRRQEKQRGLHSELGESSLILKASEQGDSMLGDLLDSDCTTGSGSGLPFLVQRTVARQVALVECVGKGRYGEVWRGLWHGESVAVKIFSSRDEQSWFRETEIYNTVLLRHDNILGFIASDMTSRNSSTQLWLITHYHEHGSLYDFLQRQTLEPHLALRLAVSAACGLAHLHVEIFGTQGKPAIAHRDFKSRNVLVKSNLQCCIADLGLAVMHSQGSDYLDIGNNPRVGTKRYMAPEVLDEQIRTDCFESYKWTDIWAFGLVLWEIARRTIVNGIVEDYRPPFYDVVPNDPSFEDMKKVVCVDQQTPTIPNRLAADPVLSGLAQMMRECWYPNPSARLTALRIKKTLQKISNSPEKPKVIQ

Compound | Kd (ALK1) | Kd (ALK2) | Kd (ALK3) | Kd (ALK4) | Kd (ALK5) | inhibition at 0.1 µM (RET_Y791F) | inhibition at 0.1 µM (MAP4K5) | inhibition at 0.1 µM (IRAK1) | inhibition at 0.1 µM (MKNK2) | inhibition at 0.1 µM (RPS6KA5) | inhibition at 0.1 µM (DCLK2) | inhibition at 0.1 µM (DNAPK) | inhibition at 0.1 µM (PRKCZ) | inhibition at 0.1 µM (PRKD2) | inhibition at 0.1 µM (MAPK13) | inhibition at 0.1 µM (CSNK2A1) | inhibition at 0.1 µM (MARK4) | inhibition at 0.1 µM (INSR) | inhibition at 0.1 µM (FRK) | inhibition at 0.1 µM (MAPK11) | other results
Clc1cc2cc(c1)-c1cnn3ccc(nc13)NCCOCCO2 [OD36] | 90 nM | 37 nM | 3000 nM | 3000 nM | 3000 nM | 30% | 18% | 9% | 28% | -3% | 11% | 13% | -3% | 9% | 15% | -7% | 13% | 6% | 35% | 11% | inhibition at 0.1 µM (DYRK3): 0%; inhibition at 0.1 µM (DMPK): 2%; inhibition at 0.1 µM (CDK7_cyclinH_MAT1): 0%; inhibition at 0.1 µM (DYRK1B): 13%; inhibition at 0.1 µM (EPHA2): 7%; inhibition at 0.1 µM (TEK): 6%; inhibition at 0.1 µM (ERBB4): 12%; inhibition at 0.1 µM (MINK1): 5%; inhibition at 0.1 µM (PRKAA1): 21%; inhibition at 0.1 µM (ABL1_H396P): 21%; inhibition at 0.1 µM (ABL1_T351I): 9%; inhibition at 0.1 µM (YES1): 28%; inhibition at 0.1 µM (MAP3K14): 10%; inhibition at 0.1 µM (FGFR1_V561M): 9%
Cc1cc2cc(c1)-c1cnn3ccc(nc13)NCCNC(=O)CCN(C)C2 [OD52] | 13 nM | 9.6 nM | 1300 nM | 260 nM | 850 nM | 30% | 19% | 16% | 9% | 7% | 7% | 4% | 4% | 4% | 3% | 3% | -4% | -4% | -5% | -5% | inhibition at 0.1 µM (DYRK3): -5%; inhibition at 0.1 µM (DMPK): -5%; inhibition at 0.1 µM (CDK7_cyclinH_MAT1): -6%; inhibition at 0.1 µM (DYRK1B): -6%; inhibition at 0.1 µM (EPHA2): -6%; inhibition at 0.1 µM (TEK): -7%; inhibition at 0.1 µM (ERBB4): -10%; inhibition at 0.1 µM (MINK1): -11%; inhibition at 0.1 µM (PRKAA1): -11%; inhibition at 0.1 µM (ABL1_H396P): -12%; inhibition at 0.1 µM (ABL1_T351I): -15%; inhibition at 0.1 µM (YES1): -22%; inhibition at 0.1 µM (MAP3K14): -23%; inhibition at 0.1 µM (FGFR1_V561M): -26%
